Values quoted from earlier work in US20050058675A1, “Fullerene compositions for ameliorating dermatological conditions” (priority 2003, published 2005).

Tested on: mice
Conditions: oral, about 0.5 mg/kg/day

C60(>C(COOH)2)3 [C3]
increase in mean survival relative to controls: ~20%
mean survival (controls 23.5+/−5.5 months, p=0.033): 28.7+/−3.3 months
